These molecules were tested against T1, recombinant full-length human GSK3β (Homo sapiens, UniProt P49841) (assay: cell-free GSK3 kinase assay (KinaseGlo luciferase)). Settings: Table 1; 5 μM ATP, 1 hour at 30 degrees Celsius.
T1 construct: recombinant full-length human GSK3β (Upstate); purchased Upstate
T1 sequence (P49841 whole entry): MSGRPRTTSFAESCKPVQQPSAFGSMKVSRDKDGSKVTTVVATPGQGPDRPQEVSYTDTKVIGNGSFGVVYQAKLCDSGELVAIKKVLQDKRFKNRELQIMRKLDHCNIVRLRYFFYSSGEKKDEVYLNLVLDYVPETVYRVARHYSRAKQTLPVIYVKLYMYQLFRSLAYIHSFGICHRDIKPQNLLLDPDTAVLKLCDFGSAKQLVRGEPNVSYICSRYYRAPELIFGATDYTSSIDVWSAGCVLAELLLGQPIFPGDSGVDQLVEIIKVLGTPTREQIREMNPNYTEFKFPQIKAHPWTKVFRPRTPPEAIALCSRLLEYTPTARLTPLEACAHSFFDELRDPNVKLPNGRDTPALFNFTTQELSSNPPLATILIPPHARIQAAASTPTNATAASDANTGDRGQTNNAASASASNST
Assay type: biochemical
Procedure: Proceed to KinaseGlo luciferase reaction.
Following the completion of the kinase reaction an equal volume of KinaseGlo luciferase reagent (Promega) is added and the luminescence read using a luminescence plate reader within 5-10 minutes.
`CC(COc1ccc(Cl)cc1)Nc1c(F)c(N)c2c(=O)c(C(=O)O)cn3c2c1OCC31CCCC1` (stereo not drawn) [Compound 74] was tested, and the IC50 was > 150 nM.
For `Nc1c(F)c(NCCOc2ccc(-c3ccccc3)cc2)c2c3c1c(=O)c(C(=O)O)cn3C1(CCCC1)CO2` [Compound 75], the IC50 was > 150 nM.
In the case of `Nc1c(F)c(NCCSc2nc3ccccc3[nH]2)c2c3c1c(=O)c(C(=O)O)cn3C1(CCCC1)CO2` [Compound 76], the IC50 is reported as > 150 nM.
With `Nc1c(F)c(N[C@H]2CC[C@H](n3ccnc3)C2)c2c3c1c(=O)c(C(=O)O)cn3C1(CCCC1)CO2` [Compound 77] the IC50 was < 15 nM.
With `Nc1c(F)c(N[C@H]2CC[C@H](c3ccccn3)C2)c2c3c1c(=O)c(C(=O)O)cn3C1(CCCC1)CO2` [Compound 78] the IC50 was < 15 nM.
In the case of `Nc1c(F)c(N[C@@H]2CC[C@H](c3ccccn3)C2)c2c3c1c(=O)c(C(=O)O)cn3C1(CCCC1)CO2` [Compound 79], the IC50 is reported as > 150 nM.
`Nc1c(F)c(NCCCc2ccncc2)c2c3c1c(=O)c(C(=O)O)cn3C1(CCCC1)CO2` [Compound 80] was tested, and the IC50 was < 15 nM.
`N#Cc1ccc(CCCNc2c(F)c(N)c3c(=O)c(C(=O)O)cn4c3c2OCC42CCCC2)nc1` [Compound 81] was tested, and the IC50 was < 15 nM.
In the case of `Nc1c(F)c(NCCNc2ccccn2)c2c3c1c(=O)ccn3C1(CCC1)CCO2` [Compound 82], the IC50 is reported as 16 to 60 nM.
Molecule `Nc1c(F)c(NCCCc2ccccn2)c2c3c1c(=O)ccn3C1(CCC1)CCO2` [Compound 83] has an IC50 of 61 to 150 nM.
`Nc1c(F)c(NCCCn2ccnc2)c2c3c1c(=O)ccn3C1(CCC1)CCO2` [Compound 84] was tested, and the IC50 was < 15 nM.
`Nc1c(F)c(NCCCc2ccccn2)c2c3c1c(=O)ccn3C1(CCCC1)CO2` [Compound 85] gave an IC50 of 16 to 60 nM.
With `NC(=O)c1cn2c3c(c(NCCNc4ccccn4)c(F)c(N)c3c1=O)OCCC21CCC1` [Compound 86] the IC50 was < 15 nM.
In the case of `NNC(=O)c1cn2c3c(c(NCCNc4ccccn4)c(F)c(N)c3c1=O)OCCC21CCC1` [Compound 88], the IC50 is reported as < 15 nM.
In the case of `Nc1c(F)c(NCCNc2ccccn2)c2c3c1c(=O)c(C(=O)NO)cn3C1(CCC1)CCO2` [Compound 89], the IC50 is reported as < 15 nM.
For `CNC(=O)c1cn2c3c(c(NCCNc4ccccn4)c(F)c(N)c3c1=O)OCCC21CCC1` [Compound 90], the IC50 was > 150 nM.
In the case of `N#Cc1cn2c3c(c(NCCNc4ccccn4)c(F)c(N)c3c1=O)OCCC21CCC1` [Compound 91], the IC50 is reported as 16 to 60 nM.
In the case of `N#Cc1cn2c3c(c(NCCCn4ccnc4)c(F)c(N)c3c1=O)OCCC21CCC1` [Compound 93], the IC50 is reported as 16 to 60 nM.
For `Cc1c(C(=O)O)c(=O)c2c(N)c(F)c(NCCNc3ccccn3)c3c2n1C1(CCC1)CCO3` [Compound 94], the IC50 was 16 to 60 nM.
`Nc1c(Cl)c(NCCNc2ccccn2)c2c3c1c(=O)c(C(=O)O)cn3C1(CCC1)CCO2` [Compound 95] gave an IC50 of 61 to 150 nM.
In the case of `Nc1c(F)c(NCCCn2ccnc2)c2c3c1c(=O)c(C(=O)O)cn3C1(CCCC1)CO2` [Compound 96], the IC50 is reported as < 15 nM.
Work on `Nc1c(F)c(NCCCn2ccnc2)c2c3c1c(=O)c(C(=O)O)cn3C1(CCC1)CCO2` [Compound 97] yielded an IC50 of 16 to 60 nM.
For `Nc1c(F)c(N2CCC(Nc3ccccn3)C2)c2c3c1c(=O)c(C(=O)O)cn3C1(CCCC1)CO2` (stereo not drawn) [Compound 98], the IC50 was > 150 nM.
In the case of `Cc1cc(=O)c2c(N)c(F)c(NCCNc3ccccn3)c3c2n1C1(CCC1)CCO3` [Compound 99], the IC50 is reported as > 150 nM.

From patent publication US8476261B2, “Spirocyclic aminoquinolones as GSK-3 inhibitors” (Kyorin Pharmaceutical Co., Ltd., priority 2007, dated 2013)
